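Briefly, cells in 96-well plates were exposed to five compound concentrations for 48 h, and endpoints were estimated by linear interpolation. GI50: concentration for 50% inhibition of growth.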 Calls of active or inactive are those of the source. Rule as the data show it: active = GI50 up to about 1.1 µM and inactive = higher.
Tests used:
Test in all cases: inhibition of tumour cell growth, NCI panel, 48 h
SK-MEL-5 = system: SK-MEL-5
A549 = system: A549
K562 = system: K562
SF-295 = system: SF-295
SF-268 = system: SF-268
HOP-62 = system: HOP-62
UACC-257 = system: UACC-257
OVCAR-3 = system: OVCAR-3
DU-145 = system: DU-145
OVCAR-8 = system: OVCAR-8
UACC-62 = system: UACC-62
MDA-MB-435 = system: MDA-MB-435
NCI-H460 = system: NCI-H460
SK-MEL-28 = system: SK-MEL-28
ACHN = system: ACHN
TK-10 = system: TK-10
RPMI-8226 = system: RPMI-8226
SK-MEL-2 = system: SK-MEL-2
U-251 = system: U-251
Malme-3M = system: Malme-3M

| Structure (SMILES) | GI50 (SK-MEL-5) | GI50 (A549) | GI50 (K562) | GI50 (SF-295) | GI50 (SF-268) | GI50 (HOP-62) | GI50 (UACC-257) | GI50 (OVCAR-3) | GI50 (DU-145) | GI50 (OVCAR-8) | GI50 (UACC-62) | GI50 (MDA-MB-435) | GI50 (NCI-H460) | GI50 (SK-MEL-28) | GI50 (ACHN) | GI50 (TK-10) | GI50 (RPMI-8226) | GI50 (SK-MEL-2) | GI50 (U-251) | GI50 (Malme-3M) |
| --- | --- | --- | --- | --- | --- | --- | --- | --- | --- | --- | --- | --- | --- | --- | --- | --- | --- | --- | --- | --- |
| COc1ccc(C2c3cc4c(cc3OC(N3CCOCC3)C2C)OCO4)c(OC)c1OC (stereo not drawn) | 10.1 µM (inactive) | 22.9 µM (inactive) | 4.34 µM (inactive) | 5.97 µM (inactive) | 17.4 µM (inactive) | 26.9 µM (inactive) | 15.9 µM (inactive) | 11 µM (inactive) | > 10 µM (inactive) | 24.7 µM (inactive) | 13.5 µM (inactive) | 2.51 µM (inactive) | 20.5 µM (inactive) | 14.2 µM (inactive) | 16.1 µM (inactive) | 15.5 µM (inactive) | 13.2 µM (inactive) | 12.2 µM (inactive) | – | – |
| O=C(CC(O)(C(F)(F)F)C(F)(F)F)C(c1ccccc1)C(O)(C(F)(F)F)C(F)(F)F (stereo not drawn) | 18.8 µM (inactive) | 22.2 µM (inactive) | 7.6 µM (inactive) | 40 µM (inactive) | – | – | 31.8 µM (inactive) | 11.5 µM (inactive) | 26.1 µM (inactive) | 14.8 µM (inactive) | 20.5 µM (inactive) | 47.3 µM (inactive) | 6.08 µM (inactive) | 25.4 µM (inactive) | 17.4 µM (inactive) | 26.3 µM (inactive) | 5.33 µM (inactive) | 35.1 µM (inactive) | 5.45 µM (inactive) | 50.4 µM (inactive) |
| CCOC(=O)c1c(N2CCCC2)[nH]c(=O)c(C(c2c(O)c(C(=O)OCC)c(N3CCCC3)[nH]c2=O)C(C)C)c1O | > 100 µM (inactive) | > 100 µM (inactive) | > 100 µM (inactive) | > 100 µM (inactive) | 72.4 µM (inactive) | 94.4 µM (inactive) | > 100 µM (inactive) | > 100 µM (inactive) | > 100 µM (inactive) | > 100 µM (inactive) | > 100 µM (inactive) | > 100 µM (inactive) | > 100 µM (inactive) | > 100 µM (inactive) | > 100 µM (inactive) | 42.4 µM (inactive) | > 100 µM (inactive) | – | 37.8 µM (inactive) | > 100 µM (inactive) |
| Cc1cn(CCCCC2=NCCCN2)c(=O)[nH]c1=O | > 28.1 µM (inactive) | > 35.1 µM (inactive) | > 24.6 µM (inactive) | 46.5 µM (inactive) | 1.34 µM (inactive) | > 46.6 µM (inactive) | > 26.2 µM (inactive) | > 26.7 µM (inactive) | > 26.6 µM (inactive) | – | > 42.2 µM (inactive) | > 26.7 µM (inactive) | > 52.5 µM (inactive) | > 26.2 µM (inactive) | > 25.2 µM (inactive) | 9.18 µM (inactive) | > 100 µM (inactive) | > 26.9 µM (inactive) | > 30.5 µM (inactive) | – |
| N#CC(c1ccc(O)cc1)N1CCN(C(C#N)c2ccc(O)cc2)CC1 (stereo not drawn) | > 100 µM (inactive) | 99.3 µM (inactive) | > 100 µM (inactive) | 38.3 µM (inactive) | 24.5 µM (inactive) | 20.2 µM (inactive) | > 100 µM (inactive) | > 100 µM (inactive) | > 51.8 µM (inactive) | 24.3 µM (inactive) | 64.1 µM (inactive) | > 100 µM (inactive) | – | 67.3 µM (inactive) | > 100 µM (inactive) | > 100 µM (inactive) | > 100 µM (inactive) | 68.2 µM (inactive) | 22.3 µM (inactive) | > 100 µM (inactive) |
| CCN(CC)CC[n+]1ccc2c(C)c3[nH]c4ccccc4c3c(C)c2c1 | 0.401 µM (active) | – | 0.214 µM (active) | 0.789 µM (active) | 0.164 µM (active) | 1.22 µM (inactive) | 0.713 µM (active) | 0.236 µM (active) | 0.422 µM (active) | – | – | 0.635 µM (active) | 0.251 µM (active) | 0.533 µM (active) | 5 µM (inactive) | 4.41 µM (inactive) | 0.367 µM (active) | 0.428 µM (active) | 0.163 µM (active) | 0.662 µM (active) |
| CC(C)[C@H]1NC(=O)[C@H]2N=C(S[C@H]2C)[C@@H]2CCCN2C(=O)[C@H](Cc2ccccc2)NC(=O)[C@@H]2CSC(=N2)[C@@H](Cc2ccccc2)NC(=O)[C@@H]2CSC1=N2 | 24.4 µM (inactive) | 17.3 µM (inactive) | 4.71 µM (inactive) | 30.3 µM (inactive) | 45.6 µM (inactive) | > 50 µM (inactive) | 31.7 µM (inactive) | 20 µM (inactive) | > 50 µM (inactive) | 33.6 µM (inactive) | 29.6 µM (inactive) | 13.7 µM (inactive) | – | 14.1 µM (inactive) | 25.4 µM (inactive) | 21.7 µM (inactive) | 7.62 µM (inactive) | 18.3 µM (inactive) | 14.9 µM (inactive) | > 50 µM (inactive) |

From ChEMBL document CHEMBL1201862, “PubChem BioAssay data set” (2004)
